Experimental data published in US20260265329A1, “POLYPEPTIDE AND DERIVATIVE THEREOF, COMPOSITION, AND USE THEREOF” (HANGZHOU SCIWIND BIOSCIENCES CO., LTD., priority 2023, published 2026).
Starred links: 1 amine or outer side, 2 acyl side, 3 side chain; linkers in the order of their positions; H or OH if unused. Non-standard residues stand in square brackets, D forms with d. Residues, ends and D or L forms follow the SMILES beside them. *: point of attachment. C20 diacid = O=C(O)CCCCCCCCCCCCCCCCCCC(=O)*; γGlu = O=C(O)[C@H](CCC(=O)[*:2])N[*:1]; Hyp = O=C(O)[C@@H]1C[C@@H](O)CN1

Legend:
human amylin receptors = target: T1, human amylin receptors (Homo sapiens, UniProt O60896+P30988); test: Luciferase assay in stably transfected amylin receptor/CRE-luc CHO cell line; format: cell-based; conditions: for Relative activity: EC50 ratio of Cagrilintide to the compound, Cagrilintide 100%; for EC50: amylin receptor/CRE-luc CHO cells, 24 hours incubation, luminescence
T1 construct: host or cells: CHO-K1/Ga15/AMY3 cells, further stably transfected with a CRE-luciferase plasmid
T1 sequence (P30988 25-474): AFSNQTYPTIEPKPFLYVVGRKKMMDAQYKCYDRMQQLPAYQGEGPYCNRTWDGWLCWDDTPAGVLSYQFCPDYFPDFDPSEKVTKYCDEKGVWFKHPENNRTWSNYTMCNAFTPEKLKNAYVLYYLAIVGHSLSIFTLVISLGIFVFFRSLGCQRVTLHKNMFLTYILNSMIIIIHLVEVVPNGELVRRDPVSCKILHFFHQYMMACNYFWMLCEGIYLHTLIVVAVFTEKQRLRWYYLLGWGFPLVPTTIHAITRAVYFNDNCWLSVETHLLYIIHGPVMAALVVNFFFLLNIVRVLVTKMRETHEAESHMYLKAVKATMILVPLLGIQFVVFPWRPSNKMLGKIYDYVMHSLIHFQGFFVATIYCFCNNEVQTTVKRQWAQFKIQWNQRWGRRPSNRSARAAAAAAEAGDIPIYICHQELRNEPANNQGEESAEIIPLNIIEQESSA
T1 sequence (O60896 24-148 partner): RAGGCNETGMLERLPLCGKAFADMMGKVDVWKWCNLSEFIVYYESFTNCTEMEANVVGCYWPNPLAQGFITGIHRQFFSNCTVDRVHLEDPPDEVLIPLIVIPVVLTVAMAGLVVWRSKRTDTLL

[1] = Heat accelerated stability assay, 40° C., detection on 10 d and 20 d; format: physicochemical; conditions: 1 mg/mL, pH about 7.4, 40° C.
Method: The derivatives (1 mg/mL) were mixed with sodium dihydrogen phosphate (1.42 mg/mL) and dissolved in ultrapure water. After adjusting pH to about 7.4 with hydrochloric acid/sodium hydroxide, the solution was filtered into a sterilized vial in a clean bench using a 0.22 μm sterile filter. The vial was then capped and placed into the stability test chamber at 40° C. Detections were made on 10d and 20d, and during the assay changes in the characteristics and properties of the polypeptides were observed and recorded. The sample was then centrifuged for 3 min at 10000 rpm at 4° C., and the supernatant was transferred to a liquid phase sample vial for detecting the concentration and purity of the polypeptides using liquid phase chromatography described as below.
Flow rate: 1.0 mL/min; Autosampler temperature: 25° C.; Column temperature: 25° C.; Detection wavelength: 214 nm; Mobile phase A: 110 mM phosphate buffer (pH 5.8): ACN=90:10; Mobile phase B: ACN: IPA: H2O=85:5:10; and Gradient of elution listed in Table 6: […]

SMILES	Relative activity (human amylin receptors)	EC50 (human amylin receptors)	Reduction in purity, 10 d [1]	Reduction in purity, 20 d [1]
CC[C@H](C)[C@H](NC(=O)[C@@H]1CCCN1C(=O)[C@H](CCCCN)NC(=O)[C@H](CC(C)C)NC(=O)[C@H](CC(N)=O)NC(=O)[C@H](CCC(=O)O)NC(=O)[C@H](CO)NC(=O)[C@H](CO)NC(=O)[C@H](Cc1c[nH]cn1)NC(=O)[C@H](CCCNC(=N)N)NC(=O)[C@H](CC(C)C)NC(=O)[C@H](Cc1ccccc1)NC(=O)[C@H](CC(=O)O)NC(=O)[C@H](C)NC(=O)[C@H](CC(C)C)NC(=O)[C@H](CCCNC(=N)N)NC(=O)[C@H](CCC(N)=O)NC(=O)[C@@H](NC(=O)[C@H](C)NC(=O)[C@H](C)NC(=O)[C@@H](NC(=O)[C@H](CO)NC(=O)[C@H](CC(C)C)NC(=O)[C@H](CCC(N)=O)NC(=O)[C@H](CO)NC(=O)[C@H](C)NC(=O)CC[C@H](NC(=O)CCCCCCCCCCCCCCCCCCC(=O)O)C(=O)O)[C@@H](C)O)[C@@H](C)O)C(=O)N[C@@H](CC(C)C)C(=O)N1CCC[C@H]1C(=O)N1CCC[C@H]1C(=O)N[C@H](C(=O)N[C@@H](CC(N)=O)C(=O)N[C@H](C(=O)NCC(=O)N[C@@H](CO)C(=O)N[C@@H](CC(N)=O)C(=O)N[C@H](C(=O)N1C[C@H](O)C[C@H]1C(N)=O)[C@@H](C)O)C(C)C)[C@@H](C)O [M47] ({C20 diacid-γGlu}-ASQLSTAATQRLADFLRHSSENLKPILPPTNVGSNT[Hyp]-NH2)	113%	0.08 nM	9.25%	
CC[C@H](C)[C@H](NC(=O)[C@@H]1CCCN1C(=O)[C@H](CCCCN)NC(=O)[C@H](CC(C)C)NC(=O)[C@H](CC(N)=O)NC(=O)[C@H](C)NC(=O)[C@H](CO)NC(=O)[C@H](CO)NC(=O)[C@H](Cc1c[nH]cn1)NC(=O)[C@H](CCCNC(=N)N)NC(=O)[C@H](CC(C)C)NC(=O)[C@H](Cc1ccccc1)NC(=O)[C@H](CC(=O)O)NC(=O)[C@H](C)NC(=O)[C@H](CC(C)C)NC(=O)[C@H](CCCNC(=N)N)NC(=O)[C@H](CCC(N)=O)NC(=O)[C@@H](NC(=O)[C@H](C)NC(=O)[C@H](C)NC(=O)[C@@H](NC(=O)[C@H](CO)NC(=O)[C@H](CC(C)C)NC(=O)[C@H](CCC(N)=O)NC(=O)[C@H](CO)NC(=O)[C@H](C)NC(=O)CC[C@H](NC(=O)CCCCCCCCCCCCCCCCCCC(=O)O)C(=O)O)[C@@H](C)O)[C@@H](C)O)C(=O)N[C@@H](CC(C)C)C(=O)N1CCC[C@H]1C(=O)N1CCC[C@H]1C(=O)N[C@H](C(=O)N[C@@H](CC(N)=O)C(=O)N[C@H](C(=O)NCC(=O)N[C@@H](CO)C(=O)N[C@@H](CC(N)=O)C(=O)N[C@H](C(=O)N1C[C@H](O)C[C@H]1C(N)=O)[C@@H](C)O)C(C)C)[C@@H](C)O [M50] ({C20 diacid-γGlu}-ASQLSTAATQRLADFLRHSSANLKPILPPTNVGSNT[Hyp]-NH2)	186%	0.07 nM	7.76%	14.46%
CC[C@H](C)[C@H](NC(=O)[C@@H]1CCCN1C(=O)[C@H](CCCCN)NC(=O)[C@H](CC(C)C)NC(=O)[C@H](CC(N)=O)NC(=O)CNC(=O)[C@H](CO)NC(=O)[C@H](CO)NC(=O)[C@H](Cc1c[nH]cn1)NC(=O)[C@H](CCCNC(=N)N)NC(=O)[C@H](CC(C)C)NC(=O)[C@H](Cc1ccccc1)NC(=O)[C@H](CC(=O)O)NC(=O)[C@H](C)NC(=O)[C@H](CC(C)C)NC(=O)[C@H](CCCNC(=N)N)NC(=O)[C@H](CCC(N)=O)NC(=O)[C@@H](NC(=O)[C@H](C)NC(=O)[C@H](C)NC(=O)[C@@H](NC(=O)[C@H](CO)NC(=O)[C@H](CC(C)C)NC(=O)[C@H](CCC(N)=O)NC(=O)[C@H](CO)NC(=O)[C@H](C)NC(=O)CC[C@H](NC(=O)CCCCCCCCCCCCCCCCCCC(=O)O)C(=O)O)[C@@H](C)O)[C@@H](C)O)C(=O)N[C@@H](CC(C)C)C(=O)N1CCC[C@H]1C(=O)N1CCC[C@H]1C(=O)N[C@H](C(=O)N[C@@H](CC(N)=O)C(=O)N[C@H](C(=O)NCC(=O)N[C@@H](CO)C(=O)N[C@@H](CC(N)=O)C(=O)N[C@H](C(=O)N1C[C@H](O)C[C@H]1C(N)=O)[C@@H](C)O)C(C)C)[C@@H](C)O [M51] ({C20 diacid-γGlu}-ASQLSTAATQRLADFLRHSSGNLKPILPPTNVGSNT[Hyp]-NH2)	163%	0.08 nM	23.4%	35.42%

More lines, now with the values ahead:

Relative activity (human amylin receptors)	EC50 (human amylin receptors)	Reduction in purity, 10 d [1]	Reduction in purity, 20 d [1]	SMILES
180%	0.05 nM	8.61%		CC[C@H](C)[C@H](NC(=O)[C@@H]1CCCN1C(=O)[C@H](CCCCN)NC(=O)[C@H](CC(C)C)NC(=O)[C@H](CC(N)=O)NC(=O)[C@H](CO)NC(=O)[C@H](CO)NC(=O)[C@H](CO)NC(=O)[C@H](Cc1c[nH]cn1)NC(=O)[C@H](CCCNC(=N)N)NC(=O)[C@H](CC(C)C)NC(=O)[C@H](Cc1ccccc1)NC(=O)[C@H](CC(=O)O)NC(=O)[C@H](C)NC(=O)[C@H](CC(C)C)NC(=O)[C@H](CCCNC(=N)N)NC(=O)[C@H](CCC(N)=O)NC(=O)[C@@H](NC(=O)[C@H](C)NC(=O)[C@H](C)NC(=O)[C@@H](NC(=O)[C@H](CO)NC(=O)[C@H](CC(C)C)NC(=O)[C@H](CCC(N)=O)NC(=O)[C@H](CO)NC(=O)[C@H](C)NC(=O)CC[C@H](NC(=O)CCCCCCCCCCCCCCCCCCC(=O)O)C(=O)O)[C@@H](C)O)[C@@H](C)O)C(=O)N[C@@H](CC(C)C)C(=O)N1CCC[C@H]1C(=O)N1CCC[C@H]1C(=O)N[C@H](C(=O)N[C@@H](CC(N)=O)C(=O)N[C@H](C(=O)NCC(=O)N[C@@H](CO)C(=O)N[C@@H](CC(N)=O)C(=O)N[C@H](C(=O)N1C[C@H](O)C[C@H]1C(N)=O)[C@@H](C)O)C(C)C)[C@@H](C)O [M48] ({C20 diacid-γGlu}-ASQLSTAATQRLADFLRHSSSNLKPILPPTNVGSNT[Hyp]-NH2)
163%	0.08 nM	8.5%		CC[C@H](C)[C@H](NC(=O)[C@@H]1CCCN1C(=O)[C@H](CCCCN)NC(=O)[C@H](CC(C)C)NC(=O)[C@H](CC(N)=O)NC(=O)[C@@H](NC(=O)[C@H](CO)NC(=O)[C@H](CO)NC(=O)[C@H](Cc1c[nH]cn1)NC(=O)[C@H](CCCNC(=N)N)NC(=O)[C@H](CC(C)C)NC(=O)[C@H](Cc1ccccc1)NC(=O)[C@H](CC(=O)O)NC(=O)[C@H](C)NC(=O)[C@H](CC(C)C)NC(=O)[C@H](CCCNC(=N)N)NC(=O)[C@H](CCC(N)=O)NC(=O)[C@@H](NC(=O)[C@H](C)NC(=O)[C@H](C)NC(=O)[C@@H](NC(=O)[C@H](CO)NC(=O)[C@H](CC(C)C)NC(=O)[C@H](CCC(N)=O)NC(=O)[C@H](CO)NC(=O)[C@H](C)NC(=O)CC[C@H](NC(=O)CCCCCCCCCCCCCCCCCCC(=O)O)C(=O)O)[C@@H](C)O)[C@@H](C)O)[C@@H](C)O)C(=O)N[C@@H](CC(C)C)C(=O)N1CCC[C@H]1C(=O)N1CCC[C@H]1C(=O)N[C@H](C(=O)N[C@@H](CC(N)=O)C(=O)N[C@H](C(=O)NCC(=O)N[C@@H](CO)C(=O)N[C@@H](CC(N)=O)C(=O)N[C@H](C(=O)N1C[C@H](O)C[C@H]1C(N)=O)[C@@H](C)O)C(C)C)[C@@H](C)O [M49] ({C20 diacid-γGlu}-ASQLSTAATQRLADFLRHSSTNLKPILPPTNVGSNT[Hyp]-NH2)
178%	0.09 nM	7.91%	15.42%	CC[C@H](C)[C@H](NC(=O)[C@@H]1CCCN1C(=O)[C@H](CCCCN)NC(=O)[C@H](CC(C)C)NC(=O)[C@H](CC(N)=O)NC(=O)[C@H](Cc1c[nH]cn1)NC(=O)[C@H](CO)NC(=O)[C@H](CO)NC(=O)[C@H](Cc1c[nH]cn1)NC(=O)[C@H](CCCNC(=N)N)NC(=O)[C@H](CC(C)C)NC(=O)[C@H](Cc1ccccc1)NC(=O)[C@H](CC(=O)O)NC(=O)[C@H](C)NC(=O)[C@H](CC(C)C)NC(=O)[C@H](CCCNC(=N)N)NC(=O)[C@H](CCC(N)=O)NC(=O)[C@@H](NC(=O)[C@H](C)NC(=O)[C@H](C)NC(=O)[C@@H](NC(=O)[C@H](CO)NC(=O)[C@H](CC(C)C)NC(=O)[C@H](CCC(N)=O)NC(=O)[C@H](CO)NC(=O)[C@H](C)NC(=O)CC[C@H](NC(=O)CCCCCCCCCCCCCCCCCCC(=O)O)C(=O)O)[C@@H](C)O)[C@@H](C)O)C(=O)N[C@@H](CC(C)C)C(=O)N1CCC[C@H]1C(=O)N1CCC[C@H]1C(=O)N[C@H](C(=O)N[C@@H](CC(N)=O)C(=O)N[C@H](C(=O)NCC(=O)N[C@@H](CO)C(=O)N[C@@H](CC(N)=O)C(=O)N[C@H](C(=O)N1C[C@H](O)C[C@H]1C(N)=O)[C@@H](C)O)C(C)C)[C@@H](C)O [M52] ({C20 diacid-γGlu}-ASQLSTAATQRLADFLRHSSHNLKPILPPTNVGSNT[Hyp]-NH2)
